“Also recorded” adds a separate entry of the source.
System: mouse fetal liver erythroblasts
Assay: mouse fetal liver erythroblast proliferation in erythropoietin containing medium
Type: cell-based
Conditions: approximately 10 uM NUP-52A added to the culture; proliferation monitored daily for two days; comparable to JAK2 inhibitor Ruxolitinib (FIG. 4)
Method: FIG. 4. Effect of NUP-52A on cell proliferation, differentiation, and enucleation in comparison to ruxolitinib. Ter119 negative mouse fetal liver erythroblasts were purified and cultured in erythropoietin containing medium. NUP-52A (Panels A, B, and C) or Ruxolitinib (Panels D, E, and F) with indicated concentrations were added to the culture media at the start of culture. The cells were cultured for two days. Cell proliferation, differentiation, and enucleation were analyzed using flow cytometry on day 2.
To screen these compounds, an assay using a well-developed Plek2 functional screening system (28) was performed. In this system, mouse fetal liver erythroid progenitors are purified and cultured in erythropoietin containing medium. These cells undergo rapid proliferation closely mimicking accelerated erythropoiesis in MPNs. In these cells, Plek2 is also highly expressed during the culture. This system then may be utilized to test Plek2 inhibitor compounds.
We used mouse fetal liver erythroblasts to test the compound. Approximately 10 uM NUP-52A was added in the fetal liver erythroblast culture and the proliferation of the cells is monitored daily for two days. […] (See FIG. 4).

For `Clc1ccc2c(N3CCNCC3)cc(-c3c[nH]c4ccccc34)nc2c1` [NUP-52A, 7-chloro-4-(piperazin-1-yl)-2-(1H-indol-3-yl)quinoline], the “effect on the proliferation of erythroblasts” value was “potent effects; also recorded: strong inhibitory effects”.

Reference: patent US20240083874A1, “TARGETING PLECKSTRIN-2 FOR TREATING CANCER AND OTHER DISEASES AND DISORDERS” (Northwestern University, priority 2021, published 2024)
